Assay results published in US20170037078A1, “2' -DIS[…] FOR TREATMENT OF THE FL[…] OF VIRUSES AND CANCER” (Cocrystal Pharma, Inc., priority 2014, published 2017).
“Also recorded” adds a separate entry of the source. Like-named read-outs stand apart in the source and are kept apart here.

Legend:
[1] = Cellular toxicity assay in human PBM cells; assay type: cell-based; conditions: human, human PBM cells; read-out: Cytotoxicity, CC50
Experimental: (§1) The toxicity of the compounds was assessed in Vero, human PBM, CEM (human lymphoblastoid), MT-2, and HepG2 cells, as described previously (see Schinazi R. F., Sommadossi J.-P., Saalmann V., Cannon D. L., Xie M.-Y., Hart G. C., Smith G. A. & Hahn E. F. Antimicrob. Agents Chemother. 1990, 34, 1061-67). Cycloheximide was included as positive cytotoxic control, and untreated cells exposed to solvent were included as negative controls. The cytotoxicity IC50 was obtained from the concentration-response curve using the median effective method described previously (see Chou T.-C. & Talalay P. Adv. Enzyme Regul. 1984, 22, 27-55; Belen'kii M. S. & Schinazi R. F. Antiviral Res. 1994, 25, 1-11).

Human PBM = experiment: Cellular toxicity assay in human PBM cells; assay type: cell-based; conditions: Human PBM cells
Experimental: as §1

[2] = Cellular toxicity assay in Vero cells; assay type: cell-based; conditions: African green monkey, read-out: Cytotoxicity, CC50
Experimental: as §1

Vero = experiment: Cellular toxicity assay in Vero cells; assay type: cell-based
Experimental: as §1

[3] = Cellular toxicity assay in CEM cells; assay type: cell-based, human; conditions: human, CEM lymphoblastoid cells, read-out: Cytotoxicity, CC50
Experimental: as §1

[4] = tested on: CEM (human lymphoblastoid); experiment: Cellular toxicity assay in CEM cells; assay type: cell-based
Experimental: as §1

HepG2 cells [5] = experiment: Mitochondrial toxicity assay: mitochondrial and nuclear DNA levels in HepG2 cells; assay type: cell-based; conditions: 14-day assay
Experimental: This assay was used in all studies described in this application that determine the effect of compounds on mitochondrial DNA content. In this assay, low-passage-number HepG2 cells were seeded at 5,000 cells/well in collagen-coated 96-well plates. Test compounds were added to the medium to obtain final concentrations of 0 μM, 0.1 μM, 10 μM and 100 μM. […] The mitochondrial cytochrome c oxidase subunit II (COXII) gene and the β-actin or rRNA gene were amplified from 5 μl of the eluted nucleic acids using a multiplex Q-PCR protocol with suitable primers and probes for both target and reference amplifications. […] For exon 3 of the […] gene (GenBank accession number E01094) the sense, probe, and antisense primers are 5′-[…]-3′, 5′-6-[…]-3′ and 5′-[…]-3′, respectively. The primers and probes for the rRNA gene are commercially available from Applied Biosystems. […] The arithmetic formula for this approach is given by 2-ΔΔCT, where ΔΔCT is (CT for average target test sample−CT for target control)−(CT for average reference test−CT for reference control) (see Johnson M R, K Wang, J B Smith, M J Heslin, R B Diasio. Quantitation of dihydropyrimidine dehydrogenase expression by real-time reverse transcription polymerase chain reaction. Anal. Biochem. 2000; 278:175-184). A decrease in mitochondrial DNA content in cells grown in the presence of drug indicated mitochondrial toxicity.

HepG2 cells [6] = experiment: Mitochondrial toxicity assay: lactic acid production in HepG2 cells; assay type: cell-based; conditions: 14-day assay
Experimental: To measure the effects of the compounds on lactic acid production, HepG2 cells from a stock culture were diluted and plated in 12-well culture plates at 2.5×10^4 cells per well. […] […] The culture medium was then filtered, and the lactic acid content in the medium was determined using a colorimetric lactic acid assay (Sigma-Aldrich). Since lactic acid product can be considered a marker for impaired mitochondrial function, elevated levels of lactic acid production detected in cells grown in the presence of test compounds would indicate a drug-induced cytotoxic effect. • ii) Effect of Compounds on Mitochondrial DNA Synthesis:

[7] = tested on: Primary human bone marrow mononuclear cells; experiment: Bone Marrow Colony Forming Cell Assay (BFU-E); assay type: cell-based
Experimental: Primary human bone marrow mononuclear cells were obtained commercially from Cambrex Bioscience (Walkersville, Md.). CFU-GM assays were carried out using a bilayer soft agar in the presence of 50 units/mL human recombinant granulocyte/macrophage colony-stimulating factor, while BFU-E assays used a […] matrix containing 1 unit/mL erythropoietin (see Sommadossi J P, Carlisle R. Toxicity of 3′-azido-3′-deoxythymidine and 9-(1,3-dihydroxy-2-propoxymethyl) guanine for normal human hepatopoietic progenitor cells in vitro. Antimicrob. Agents Chemother. 1987; 31: 452-454; Sommadossi, J P, Schinazi, R F, Chu, C K, and Xie, M Y. Comparison of cytotoxicity of the (−) and (+) enantiomer of 2′,3′-dideoxy-3′-thiacytidine in normal human bone marrow progenitor cells. Biochem. Pharmacol. 1992; 44:1921-1925). Each experiment was performed in duplicate in cells from three different donors. AZT was used as a positive control. […] The 50% inhibitory concentration (IC50) was obtained by least-squares linear regression analysis of the logarithm of drug concentration versus BFU-E survival fractions. Statistical analysis was performed with Student's t test for independent non-paired samples.

[8] = tested on: HCV GT 1b replicon (Huh-7 cells); experiment: HCV Replicon Assay; assay type: cell-based; conditions: Hepatitis C virus, GT1B
Experimental: (§2) Huh 7 Clone B cells containing HCV Replicon RNA were seeded in a 96-well plate at 5000 cells/well, and the compounds tested at 10 μM in triplicate immediately after seeding. Following five days incubation (37° C., 5% CO2), total cellular RNA was isolated by using versaGene RNA purification kit from Gentra. Replicon RNA and an internal control (TaqMan rRNA control reagents, Applied Biosystems) were amplified in a single step multiplex Real Time RT-PCR Assay. The antiviral effectiveness of the compounds was calculated by subtracting the threshold RT-PCR cycle of the test compound from the threshold RT-PCR cycle of the no-drug control (ΔCt HCV). A ΔCt of 3.3 equals a 1-log reduction (equal to 90% less starting material) in Replicon RNA levels. The cytotoxicity of the compounds was also calculated by using the ΔCt rRNA values. 2′-C-Me-C was used as the positive control. To determine EC90 and IC50 values^2, ΔCt: values were first converted into fraction of starting material^3 and then were used to calculate the % inhibition.

[9] = Cytotoxicity in HCV replicon assay (ΔCt rRNA); assay type: cell-based; conditions: human, Huh-7 Clone B cells containing HCV GT 1b replicon RNA; HCV GT 1b replicon Huh-7 cells
Experimental: as §2

[10] = target: Human DNA Polymerase Pol Beta (Homo sapiens, UniProt P06746); experiment: Inhibition of Human DNA Polymerase Beta; assay type: biochemical
[11] = target: T1, Human DNA Polymerase Pol Gamma (Homo sapiens, UniProt P54098); experiment: Inhibition of Human DNA Polymerase Gamma; assay type: biochemical
T1 construct: made in house
T1 sequence (P54098 26-1239 limits assumed): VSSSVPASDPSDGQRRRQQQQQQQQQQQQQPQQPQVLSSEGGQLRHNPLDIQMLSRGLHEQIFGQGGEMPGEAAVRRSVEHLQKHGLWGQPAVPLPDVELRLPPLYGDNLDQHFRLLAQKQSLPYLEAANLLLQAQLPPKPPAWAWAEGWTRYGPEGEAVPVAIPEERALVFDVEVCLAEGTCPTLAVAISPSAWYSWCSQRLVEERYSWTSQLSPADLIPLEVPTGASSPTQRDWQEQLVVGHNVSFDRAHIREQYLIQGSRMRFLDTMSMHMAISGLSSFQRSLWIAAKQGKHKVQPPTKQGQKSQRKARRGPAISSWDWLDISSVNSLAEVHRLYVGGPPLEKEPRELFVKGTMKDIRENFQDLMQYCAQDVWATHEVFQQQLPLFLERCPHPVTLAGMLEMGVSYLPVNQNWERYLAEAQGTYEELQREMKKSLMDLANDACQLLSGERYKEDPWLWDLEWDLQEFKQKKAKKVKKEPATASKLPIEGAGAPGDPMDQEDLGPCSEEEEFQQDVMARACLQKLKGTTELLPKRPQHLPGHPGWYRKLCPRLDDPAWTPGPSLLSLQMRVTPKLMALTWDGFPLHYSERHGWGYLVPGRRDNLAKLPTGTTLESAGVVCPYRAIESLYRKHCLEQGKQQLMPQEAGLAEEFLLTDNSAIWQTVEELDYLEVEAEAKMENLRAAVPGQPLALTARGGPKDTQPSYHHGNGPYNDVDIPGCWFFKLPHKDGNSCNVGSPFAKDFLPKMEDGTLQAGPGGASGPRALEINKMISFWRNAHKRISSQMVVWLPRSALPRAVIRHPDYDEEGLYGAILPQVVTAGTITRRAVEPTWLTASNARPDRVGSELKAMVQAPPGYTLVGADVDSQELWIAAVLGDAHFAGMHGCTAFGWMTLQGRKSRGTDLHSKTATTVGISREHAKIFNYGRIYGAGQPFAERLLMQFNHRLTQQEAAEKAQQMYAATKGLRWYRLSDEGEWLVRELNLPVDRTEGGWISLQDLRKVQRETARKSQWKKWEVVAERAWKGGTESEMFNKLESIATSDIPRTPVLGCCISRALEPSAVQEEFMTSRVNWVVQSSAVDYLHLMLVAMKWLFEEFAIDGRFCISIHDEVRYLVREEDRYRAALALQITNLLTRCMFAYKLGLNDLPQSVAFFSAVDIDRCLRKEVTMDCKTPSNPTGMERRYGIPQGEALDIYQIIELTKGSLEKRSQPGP
T1 sequence (Q9UHN1 26-485 partner limits assumed): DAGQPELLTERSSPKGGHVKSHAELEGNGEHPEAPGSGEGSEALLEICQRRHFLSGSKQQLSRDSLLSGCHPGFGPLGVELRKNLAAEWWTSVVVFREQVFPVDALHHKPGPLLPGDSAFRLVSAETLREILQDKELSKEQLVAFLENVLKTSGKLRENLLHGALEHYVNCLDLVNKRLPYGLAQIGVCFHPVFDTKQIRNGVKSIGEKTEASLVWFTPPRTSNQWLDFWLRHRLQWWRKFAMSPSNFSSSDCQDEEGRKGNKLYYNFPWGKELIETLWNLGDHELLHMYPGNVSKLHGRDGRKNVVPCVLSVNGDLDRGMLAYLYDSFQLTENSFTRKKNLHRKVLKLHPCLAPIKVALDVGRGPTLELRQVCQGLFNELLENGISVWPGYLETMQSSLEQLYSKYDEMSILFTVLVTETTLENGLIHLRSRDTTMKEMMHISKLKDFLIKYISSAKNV

Compound: CC(C)OC(=O)[C@H](C)NP(=O)(OC[C@H]1O[C@@H](n2ccc(=O)[nH]c2=O)C(F)(Cl)[C@H]1O)Oc1ccccc1 (stereo partly drawn) [Compound 12, (2S)-isopropyl-2-(((4-chloro-5-(2,4-dioxo-3,4-dihydropyrimidin-1 (2H)-yl-4-fluoro-3-hydroxytetrahydrofuran-2-yl)methoxy) (phenoxy)phosphoryl)amino)propanoate]
- CC50 [1]: > 100 µM
- % inhibition at maximum concentration evaluated (Human PBM): 36.2%
- CC50 [2]: > 100 µM
- % inhibition at maximum concentration evaluated (Vero): 17.4%
- CC50 [3]: > 100 µM
- % inhibition at maximum concentration evaluated [4]: −4.8%
- Summary (mitochondrial toxicity) (HepG2 cells [5]): non-toxic; also recorded: not toxic
- MtDNA Content (% of control) (HepG2 cells [5]; 10 μM): 129 (117-143) % of control
- MtDNA Content (% of control) (HepG2 cells [5]; 50 μM): 84 (68-102) % of control
- inhibition at 10 µM (HepG2 cells [5]; Homo sapiens, 336 h, 10 μM, read-out: % Inhibition MtDNA): < 1%
- inhibition at 10 µM (HepG2 cells [5]; Homo sapiens, 336 h, 10 μM, read-out: % Inhibition nDNA): < 1%
- inhibition at 50 µM (HepG2 cells [5]; Homo sapiens, 336 h, 50 μM, read-out: % Inhibition MtDNA): 27%
- inhibition at 50 µM (HepG2 cells [5]; Homo sapiens, 336 h, 50 μM, read-out: % Inhibition nDNA): 12.8%
- IC50 (HepG2 cells [5]; Homo sapiens, 336 h, read-out: IC50, MtDNA): > 50 µM
- IC50 (HepG2 cells [5]; Homo sapiens, 336 h, read-out: IC50, nDNA): > 50 µM
- Lactic acid Production (% of control) (HepG2 cells [6]; 10 μM): 60.20 ± 1.25 % of control
- Lactic acid Production (% of control) (HepG2 cells [6]; 50 μM): 55.49 ± 0.88 % of control
- IC50 ([7]; Donor 2): > 100 µM
- IC50 ([7]; Homo sapiens, Donor 1): > 100 µM
- EC50 [8]: 0.1 to 1 µM
- EC90 [8]: 0.1 to 1 µM
- CC50 at 5 days [9]: > 10 µM

Compound: Nc1ccn([C@H]2CC[C@@H](CO)O2)c(=O)n1 [ddC, reference compound]
- Summary (mitochondrial toxicity) (HepG2 cells [5]): toxic
- % Inhibition MtDNA (HepG2 cells [5]; 10 μM): 95.5%
- % Inhibition nDNA (HepG2 cells [5]; 10 μM): 52.6%
- MtDNA Content (% of control) (HepG2 cells [5]; 10 μM): 9.5 (5.7-16.0) % of control
- IC50 (HepG2 cells [5]; read-out: IC50, MtDNA): < 10 µM
- IC50 (HepG2 cells [5]; read-out: IC50, nDNA): ≤ 10 µM
- Lactic acid Production (% of control) (HepG2 cells [6]; 10 μM): 325.93 ± 27.05 % of control

Compound: Cc1cn([C@H]2CC[C@@H](COP(=O)(O)OP(=O)(O)OP(=O)(O)O)O2)c(=O)[nH]c1=O [ddTTP]
- IC50 [10]: 18 µM
- IC50 [11]: 43 µM
